Assay results from patent publication US8293901B2, “MAPK/ERK kinase inhibitors” (Takeda Pharmaceutical Company Limited, priority 2006, dated 2012).

Target: MEK1 (Homo sapiens, UniProt Q02750, DEL33-52/S218E/S222D)
Test: MEK1 inhibition, ERK1/FI-Erktide fluorescence polarization assay with IMAP beads

Chain of MEK1 (Q02750 with tags, fused parts or gaps DEL33-52/S218E/S222D): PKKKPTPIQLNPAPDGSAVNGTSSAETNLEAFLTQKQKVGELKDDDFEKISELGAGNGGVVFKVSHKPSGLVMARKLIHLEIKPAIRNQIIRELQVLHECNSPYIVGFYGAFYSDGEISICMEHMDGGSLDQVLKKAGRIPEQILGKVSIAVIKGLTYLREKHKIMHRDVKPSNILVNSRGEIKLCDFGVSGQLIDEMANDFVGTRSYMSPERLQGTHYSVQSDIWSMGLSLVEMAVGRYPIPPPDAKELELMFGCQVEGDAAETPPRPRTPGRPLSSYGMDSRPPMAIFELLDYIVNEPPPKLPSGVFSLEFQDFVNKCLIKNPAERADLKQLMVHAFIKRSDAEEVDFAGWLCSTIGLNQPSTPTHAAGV

Row | Compound | IC50
1 | COC(=O)Cn1cnc2c(c(Nc3ccc(I)cc3F)cc(=O)n2C)c1=O [Example 3, Methyl 2-(5-(2-fluoro-4-iodophenylamino)-8-methyl-4,7-dioxo-7,8-dihydropyrido[2,3-d]pyrimidin-3(4H)-yl)acetate] | ≥ 16 nM
2 | Cn1c(=O)c(Cl)c(Nc2ccc(I)cc2F)c2c(=O)n(C[C@H](O)CO)cnc21 [Example 7, (S)-6-Chloro-3-(2,3-dihydroxypropyl)-5-(2-fluoro-4-iodophenylamino)-8-methylpyrido[2,3-d]pyrimidine-4,7(3H,8H)-dione] | ≤ 5 nM
3 | Cc1c(Nc2ccc(Br)cc2F)c2c(=O)n(C[C@H](O)CO)cnc2n(C)c1=O [Example 9, (S)-5-(4-Bromo-2-fluorophenylamino)-3-(2,3-dihydroxypropyl)-6,8-dimethylpyrido[2,3-d]pyrimidine-4,7(3H,8H)-dione] | ≥ 16 nM
4 | Cc1c(Nc2ccc(Br)cc2F)c2c(=O)n(C[C@@H](O)CO)cnc2n(C)c1=O [Example 10, (R)-5-(4-Bromo-2-fluorophenylamino)-3-(2,3-dihydroxypropyl)-6,8-dimethylpyrido[2,3-d]pyrimidine-4,7(3H,8H)-dione] | ≥ 16 nM
5 | Cc1c(Nc2ccc(Br)cc2F)c2c(=O)n(CCO)cnc2n(C)c1=O [Example 11, 5-(4-Bromo-2-fluorophenylamino)-3-(2-hydroxyethyl)-6,8-dimethylpyrido[2,3-d]pyrimidine-4,7(3H,8H)-dione] | ≥ 16 nM
6 | Cc1c(Nc2ccc(I)cc2F)c2c(=O)n(CCO)cnc2n(C)c1=O [Example 14, 5-(2-Fluoro-4-iodophenylamino)-3-(2-hydroxyethyl)-6,8-dimethylpyrido[2,3-d]pyrimidine-4,7(3H,8H)-dione] | ≤ 5 nM
7 | Cc1c(Nc2ccccc2F)c2c(=O)n(CCO)cnc2n(C)c1=O [Example 15, 5-(2-Fluorophenylamino)-3-(2-hydroxyethyl)-6,8-dimethylpyrido[2,3-d]pyrimidine-4,7(3H,8H)-dione] | ≥ 16 nM
8 | C#Cc1ccc(Nc2c(C)c(=O)n(C)c3ncn(C[C@@H](O)CO)c(=O)c23)c(F)c1 [Example 16, (R)-3-(2,3-Dihydroxypropyl)-5-(4-ethynyl-2-fluorophenylamino)-6,8-dimethylpyrido[2,3-d]pyrimidine-4,7(3H,8H)-dione] | 5 to 15 nM
9 | Cn1c(=O)c(F)c(Nc2ccc(I)cc2F)c2c(=O)n(C[C@@H](O)CO)cnc21 [Example 18, (R)-3-(2,3-Dihydroxypropyl)-6-fluoro-5-(2-fluoro-4-iodophenylamino)-8-methylpyrido[2,3-d]pyrimidine-4,7(3H,8H)-dione] | ≤ 5 nM
10 | Cn1c(=O)c(F)c(Nc2ccc(I)cc2F)c2c(=O)n(C[C@H](O)CO)cnc21 [Example 19, (S)-3-(2,3-Dihydroxypropyl)-6-fluoro-5-(2-fluoro-4-iodophenylamino)-8-methylpyrido[2,3-d]pyrimidine-4,7(3H,8H)-dione] | ≤ 5 nM
11 | C#Cc1ccc(Nc2c(F)c(=O)n(C)c3ncn(C[C@H](O)CO)c(=O)c23)c(F)c1 [Example 21, (S)-3-(2,3-Dihydroxypropyl)-5-(4-ethynyl-2-fluorophenylamino)-6-fluoro-8-methylpyrido[2,3-d]pyrimidine-4,7(3H,8H)-dione] | 5 to 15 nM
12 | C#Cc1ccc(Nc2c(F)c(=O)n(C)c3ncn(C[C@@H](O)CO)c(=O)c23)c(F)c1 [Example 22, (R)-3-(2,3-dihydroxypropyl)-5-(4-ethynyl-2-fluorophenylamino)-6-fluoro-8-methylpyrido[2,3-d]pyrimidine-4,7(3H,8H)-dione] | ≤ 5 nM
13 | Cn1c(=O)c(F)c(Nc2ccc(NS(C)(=O)=O)cc2F)c2c(=O)n(C[C@@H](O)CO)cnc21 [Example 23, (R)—N-(4-(3-(2,3-Dihydroxypropyl)-6-fluoro-8-methyl-4,7-dioxo-3,4,7,8-tetrahydropyrido[2,3-d]pyrimidin-5-ylamino)-3-fluorophenyl)methanesulfonamide] | ≥ 16 nM
14 | Cn1c(=O)c(F)c(Nc2ccc(I)cc2F)c2c(=O)n(C(CO)CO)cnc21 [Example 25, 3-(1,3-Dihydroxypropan-2-yl)-6-fluoro-5-(2-fluoro-4-iodophenylamino)-8-methylpyrido[2,3-d]pyrimidine-4,7(3H,8H)-dione] | ≤ 5 nM
15 | Cn1c(=O)c(F)c(Nc2ccc(I)cc2F)c2c(=O)n(OC[C@H](O)CO)cnc21 [Example 28, (R)-3-(2,3-Dihydroxypropoxy)-6-fluoro-5-(2-fluoro-4-iodophenylamino)-8-methylpyrido[2,3-d]pyrimidine-4,7(3H,8H)-dione] | ≤ 5 nM
16 | Cn1c(=O)c(Cl)c(Nc2ccc(Br)cc2F)c2c(=O)n(C[C@@H](O)CO)cnc21 [Example 29, (R)-5-(4-Bromo-2-fluorophenylamino)-6-chloro-3-(2,3-dihydroxypropyl)-8-methylpyrido[2,3-d]pyrimidine-4,7(3H,8H)-dione] | 5 to 15 nM
17 | Cn1c(=O)c(Cl)c(Nc2ccc(I)cc2F)c2c(=O)n(CCO)cnc21 [Example 30, 6-Chloro-5-(2-fluoro-4-iodophenylamino)-3-(2-hydroxyethyl)-8-methylpyrido[2,3-d]pyrimidine-4,7(3H,8H)-dione] | ≤ 5 nM
18 | Cn1c(=O)cc(Nc2ccc(I)cc2F)c2c(=O)n(CCCO)cnc21 [Example 31, 5-(2-Fluoro-4-iodophenylamino)-3-(3-hydroxypropyl)-8-methylpyrido[2,3-d]pyrimidine-4,7(3H,8H)-dione] | ≤ 5 nM
19 | Cn1c(=O)c(Cl)c(Nc2ccc(I)cc2F)c2c(=O)n(CCCO)cnc21 [Example 32, 6-Chloro-5-(2-fluoro-4-iodophenylamino)-3-(3-hydroxypropyl)-8-methylpyrido[2,3-d]pyrimidine-4,7(3H,8H)-dione] | ≤ 5 nM
20 | Cn1c(=O)cc(Nc2ccc(Br)cc2F)c2c(=O)n(CCCO)cnc21 [Example 33, 5-(4-Bromo-2-fluorophenylamino)-3-(3-hydroxypropyl)-8-methylpyrido[2,3-d]pyrimidine-4,7(3H,8H)-dione] | ≥ 16 nM
21 | Cn1c(=O)c(Cl)c(Nc2ccc(Br)cc2F)c2c(=O)n(CCCO)cnc21 [Example 34, 5-(4-Bromo-2-fluorophenylamino)-6-chloro-3-(3-hydroxypropyl)-8-methylpyrido[2,3-d]pyrimidine-4,7(3H,8H)-dione] | 5 to 15 nM
22 | Cn1c(=O)cc(Nc2ccc(Br)cc2Cl)c2c(=O)n(CCCO)cnc21 [Example 35, 5-(4-Bromo-2-chlorophenylamino)-3-(3-hydroxypropyl)-8-methylpyrido[2,3-d]pyrimidine-4,7(3H,8H)-dione] | ≥ 16 nM
23 | Cn1c(=O)c(Cl)c(Nc2ccc(Br)cc2Cl)c2c(=O)n(CCCO)cnc21 [Example 36, 5-(4-Bromo-2-chlorophenylamino)-6-chloro-3-(3-hydroxypropyl)-8-methylpyrido[2,3-d]pyrimidine-4,7(3H,8H)-dione] | ≥ 16 nM
24 | CN(C)CCn1cnc2c(c(Nc3ccc(I)cc3F)cc(=O)n2C)c1=O [Example 37, 3-(2-(Dimethylamino)ethyl)-5-(2-fluoro-4-iodophenylamino)-8-methylpyrido[2,3-d]pyrimidine-4,7(3H,8H)-dione] | ≥ 16 nM
25 | CC(O)Cn1cnc2c(c(Nc3ccc(I)cc3F)cc(=O)n2C)c1=O (centres unmarked) [Example 38, 5-(2-Fluoro-4-iodophenylamino)-3-(2-hydroxypropyl)-8-methylpyrido[2,3-d]pyrimidine-4,7(3H,8H)-dione] | ≥ 16 nM
26 | CC(O)Cn1cnc2c(c(Nc3ccc(I)cc3F)c(Cl)c(=O)n2C)c1=O (centres unmarked) [Example 40, 6-Chloro-5-(2-fluoro-4-iodophenylamino)-3-(2-hydroxypropyl)-8-methylpyrido[2,3-d]pyrimidine-4,7(3H,8H)-dione] | 5 to 15 nM
27 | Cn1c(=O)cc(Nc2ccc(I)cc2F)c2c(=O)n(Cc3ccccc3)cnc21 [Example 42, 3-Benzyl-5-(2-fluoro-4-iodophenylamino)-8-methylpyrido[2,3-d]pyrimidine-4,7(3H,8H)-dione] | ≥ 16 nM
28 | Cc1c(Nc2ccc(I)cc2F)c2c(=O)n(C(CO)CO)cnc2n(C)c1=O [Example 43, 3-(1,3-Dihydroxypropan-2-yl)-5-(2-fluoro-4-iodophenylamino)-6,8-dimethylpyrido[2,3-d]pyrimidine-4,7(3H,8H)-dione] | 5 to 15 nM
29 | C#Cc1ccc(Nc2c(C)c(=O)n(C)c3ncn(C[C@H](O)CO)c(=O)c23)c(F)c1 [Example 44, (S)-3-(2,3-Dihydroxypropyl)-5-(4-ethynyl-2-fluorophenylamino)-6,8-dimethylpyrido[2,3-d]pyrimidine-4,7(3H,8H)-dione] | 5 to 15 nM
